Patent publication US5798356A, “Angiostatic compounds” (Alcon Laboratories, Inc., priority 1996, dated 1998)

Assays:
rabbit cornea = test: rabbit model of lipopolysaccharide (LPS) induced corneal neovascularization; format: in vivo; details: Elvax-40 pellet in cornea, Elvax control = 100
Experimental: Representative compounds of the present invention were assayed for their efficacy in inhibiting angiogenesis in vivo, in a rabbit model of lipopolysaccharide (LPS) induced corneal neovascularization. Briefly, the test compound and LPS (a stimulus for initiating neovascularization) are incorporated into separate Elvax-40 pellets as described in D. […] The area covered by new vessel formation in response to LPS is measured and suppression of neovascularization by test compounds is estimated at the end of the test period. The data is expressed as a relative area units in relation to the Elvax control (100).

[1] = system: human lung microvascular endothelial cells; test: inhibition of 3H-thymidine uptake in DNA as a measure of DNA synthesis; format: cell-based; details: Endothelial cell, 18 hours exposure, then 3H-thymidine 6 hours; for inhibition at 5 µM: concentration 5.0 μM; for inhibition at 10 µM: concentration 10 μM; for inhibition at 25 µM: concentration 25 μM
Experimental: Representative compounds of the present invention were assayed for their efficacy in inhibiting ^3 H-thymidine uptake in DNA as a measure of DNA synthesis (R.I. Freshney, Culture of Animal Cells, 3rd Edition, John Wiley and Sons, N.Y., N.Y., pages 277-278 (1994)). Briefly, human lung microvascular endothelial cells in mid-log phase were exposed to either a representative compound of the present invention or the vehicle (1.0% DMSO) for 18 hours. Cells were then incubated with ^3 H-thymidine for another 6 hours. DNA synthesis was stopped by the addition of cold 5% TCA solution and the relative synthesis assessed by measuring ^3 H-thymidine incorporated into the acid-insoluble product. The data is expressed as percent inhibition of uptake based on tritium counts in the vehicle control reactions.

[2] = system: human umbilical vein endothelial cells (HUVEC); test: inhibition of endothelial cell proliferation (HUVEC); format: cell-based; details: for inhibition at 1 µM / inhibition at 5 µM / inhibition at 10 µM / inhibition at 25 µM: Homo sapiens; for inhibition at 25 µM: concentration 25 μM
Experimental: Representative compounds of the present invention were assayed for their efficacy in inhibiting endothelial cell proliferation. […] At mid-log phase the cells were detached from the plate and counted using a coulter counter. Viability tests were conducted using trypan blue. The data is expressed as percent inhibition based on the control number of endothelial cells counted.

[3] = system: chorioallantoic membrane (CAM); test: inhibition of angiogenesis in a chorioallantoic membrane (CAM) model; format: in vivo, chicken embryo; details: 10 μg in liposome/agarose bead on CAM, 2 days; percent responding embryos per nanomole relative to tetrahydrocortisol
Experimental: Representative compounds of the present invention were assayed for their efficacy in inhibiting angiogenesis in a chorioallantoic membrane (CAM) model (See, McNatt, et al., Angiostatic Activity and Metabolism of Cortisol in The Chorioallantoic Membrane (CAM) of the Chick Embryo, Journal of Steriod Biochemistry and Molecular Biology, volume 42, No. 7, pages 687-693 (1992)). Briefly, 10 μg of the test compound or reference compound (tetrahydrocortisol) were suspended in a liposome/agarose bead and placed on the CAM of a 5-6 day chicken embryo. Following 2 days of incubation, the CAMs were scored for relative angiostatic activity by comparing percent responding embryos per nanomole test compound to percent responding embryos for the reference compound.

| Compound | Relative Area of Neovascularization (rabbit cornea; day 4) | Relative Area of Neovascularization (rabbit cornea; day 9) | Relative Area of Neovascularization (rabbit cornea; day 15) | Relative Area of Neovascularization (rabbit cornea; day 22) | inhibition at 1 µM ([2]; concentration 1.0 μM) | inhibition at 5 µM ([2]; concentration 5.0 μM) | inhibition at 10 µM ([2]; concentration 10 μM) | inhibition at 25 µM [2] | RAF (Relative Angiostatic Factor) [3] | also measured |
| --- | --- | --- | --- | --- | --- | --- | --- | --- | --- | --- |
| COc1ccc2cc(C(C)C(=O)NCC3(C)CCc4c(C)c(O)c(C)c(C)c4O3)ccc2c1 (stereo not shown) [C] | 102 relative area units | 57 relative area units | 41 relative area units | 60 relative area units | – | – | – | – | – | – |
| COc1ccc2cc(C(C)C(=O)OCCC3(C)CCc4c(C)c(O)c(C)c(C)c4O3)ccc2c1 (stereo not shown) [Compound A] | 66 relative area units | 54 relative area units | 48 relative area units | 103 relative area units | 6.7% | 25.5% | 43.4% | 55.2% | 0.10 | inhibition at 5 µM [1]: 16.3%; inhibition at 10 µM [1]: 25.7%; inhibition at 15 µM ([1]; concentration 15 μM): 57.4%; inhibition at 20 µM ([1]; concentration 20 μM): 82.9%; inhibition at 25 µM [1]: 96.5% |
| COc1ccc2cc(C(C)C(=O)OCC3(C)Cc4c(C)c(O)c(C)c(C)c4O3)ccc2c1 (stereo not shown) [Compound B] | – | – | – | – | 5% | 13.9% | 47.7% | 60.5% | 1.06 | inhibition at 5 µM [1]: 36.9%; inhibition at 10 µM [1]: 63.1%; inhibition at 25 µM [1]: 97.9% |
| Cc1c(C)c2c(c(C)c1O)CC(C)(CCN1CCN(C(c3ccc(F)cc3)c3ccc(F)cc3)CC1)O2 (stereo not shown) [Compound E] | 99 relative area units | 76 relative area units | 88 relative area units | 115 relative area units | 25% | 48% | 88% | 91% | 1.78 | – |
| Cc1c(C)c2c(c(C)c1OC(=O)CCC(=O)O)CCC(C)(CCCC(C)CCCC(C)CCCC(C)C)O2 (stereo not shown) [Compound G] | – | – | – | – | 43% | 8% | 35.1% | 65.5% | 1.21 | – |
| Cc1c(C)c2c(c(C)c1O)CCC(C)(CCO)O2 (stereo not shown) [F] | 92 relative area units | 85 relative area units | 30 relative area units | 39 relative area units | – | – | – | – | – | – |
| C[C@]12CCC(=O)C=C1CC[C@@H]1[C@@H]2[C@@H](O)C[C@@]2(C)[C@H]1CC[C@]2(O)C(=O)COC(=O)CCC(=O)O [Hydrocortisone hemisuccinate, reference compound] | 0 relative area units | 1.5 relative area units | 0.6 relative area units | 4.9 relative area units | – | – | – | – | – | – |
| C[C@]12CC[C@@H](O)C[C@H]1CC[C@@H]1[C@@H]2[C@@H](O)C[C@@]2(C)[C@H]1CC[C@]2(O)C(=O)CO [Tetrahydrocortisol, tetrahydrocortisol, reference compound] | – | – | – | – | – | – | – | – | 1.00 | – |
| Vitamin E [reference compound] | – | – | – | – | – | – | – | – | – | % Inhibition of Endothelial Cell Proliferation ([2]; concentration 1.0 μM): 0%; % Inhibition of Endothelial Cell Proliferation ([2]; concentration 5.0 μM): 0%; % Inhibition of Endothelial Cell Proliferation ([2]; concentration 10 μM): 1% |
